Residues, ends and D or L forms follow the SMILES beside them. *: point of attachment. Cbz = O=C(OCc1ccccc1)*; CH2F = FC*
Experiments:
caspase-3 = molecular target: T1, caspase-3 (Homo sapiens, UniProt P42574); type: biochemical; conditions: read-out: Caspase-3 IC50
T1 sequence (P42574 29-175 limits assumed): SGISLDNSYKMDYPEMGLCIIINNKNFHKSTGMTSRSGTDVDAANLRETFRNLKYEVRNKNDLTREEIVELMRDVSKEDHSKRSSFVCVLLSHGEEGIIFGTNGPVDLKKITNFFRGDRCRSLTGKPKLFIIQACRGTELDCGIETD
T1 sequence (P42574 176-277 limits assumed): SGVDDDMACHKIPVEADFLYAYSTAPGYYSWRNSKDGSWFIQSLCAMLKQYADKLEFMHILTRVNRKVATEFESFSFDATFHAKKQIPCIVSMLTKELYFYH

SARS-CoV-2 M^pro = SARS-CoV-2 M^pro (Severe acute respiratory syndrome coronavirus 2, UniProt P0DTD1); conditions: at 20 μM, authors' previous screening; cited from earlier work

Compound	IC50 (caspase-3) [nM]	inhibition of M^pro enzymatic activity (SARS-CoV-2 M^pro) [%]
COC(=O)C[C@H](NC(=O)[C@H](C)NC(=O)[C@@H](NC(=O)OCc1ccccc1)C(C)C)C(=O)CF [Z-VAD-FMK] (Cbz-Val-Ala-Asp(OMe)-CH2F)	100 ± 40	
CCC[C@H](NC(=O)[C@@H]1[C@H]2CCC[C@H]2CN1C(=O)[C@@H](NC(=O)[C@@H](NC(=O)c1cnccn1)C1CCCCC1)C(C)(C)C)C(=O)C(=O)NC1CC1 [telaprevir]		31

From publication PMC8204911 (ACS Pharmacology & Translational Science, 2021)
